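Five compound concentrations were applied to cells in 96-well plates for 48 hours; endpoints were derived by simple linear interpolation of the resulting dose-response curve. At the GI50, growth is halved.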 Activity calls are given as the source filed them. Rule as the data show it: active = GI50 up to about 1.1 µM and inactive = higher.

Among the test systems are A549; OVCAR-3; MDA-MB-435; OVCAR-4; NCI-H522; UACC-257; K562; RPMI-8226; MDA-MB-231; CCRF-CEM; 786-0; EKVX; PC-3; BT-549; SN12C; NCI-H460; U-251; SK-OV-3; NCI-H226; HL-60.
Holding throughout (experiment): DTP human tumour cell line panel, 48 h

A word on the GI50: it is the concentration at which growth is held to half of that of the control. Take `N=C(N)NS(=O)(=O)c1ccc(NC(=O)c2c3ccccc3nc3ccccc23)cc1`: the GI50 with A549, in the assay on OVCAR-3, with MDA-MB-435, in the assay with OVCAR-4, in the assay on NCI-H522 and in the assay with UACC-257 was > 100 µM (inactive) in each case. For the same compound, the GI50 in the assay with K562 is > 10 µM (inactive); in the assay on RPMI-8226, > 100 µM (inactive); in the assay with MDA-MB-231, > 100 µM (inactive); in the assay on CCRF-CEM, > 100 µM (inactive); in the assay with 786-0 it was > 100 µM (inactive); in the assay on EKVX, > 100 µM (inactive). Further, the GI50 with PC-3, with BT-549, with SN12C, in the assay on NCI-H460, in the assay with U-251 and in the assay on SK-OV-3 was > 100 µM (inactive) in each case. For the same compound, the GI50 in the assay with NCI-H226 was 43.1 µM (inactive).
Turning to `CC(C)(C)OC(=O)NC(C)(C)C(=O)NCCC(=O)O`, the GI50 in the assay with A549, with OVCAR-3, with MDA-MB-435, with OVCAR-4, with NCI-H522 and in the assay on UACC-257 was > 100 µM (inactive) in each case. For the same compound, the GI50 in the assay with K562, with RPMI-8226, in the assay on MDA-MB-231, in the assay with CCRF-CEM, in the assay with 786-0 and with EKVX was > 100 µM (inactive) each time. The GI50 in the assay with PC-3 is > 100 µM (inactive); in the assay with BT-549, > 100 µM (inactive); with SN12C, > 100 µM (inactive); in the assay on NCI-H460 it was > 100 µM (inactive); in the assay on U-251, > 100 µM (inactive); in the assay on SK-OV-3, 74.6 µM (inactive). Further, in the assay with NCI-H226, the GI50 is > 100 µM (inactive).
Take `C1=N\CCN2CCN(CC/N=C\c3ccccc3OCc3cccc(n3)COc3ccccc3/1)CC2`: the GI50 in the assay with A549 is 44.6 µM (inactive); in the assay with OVCAR-3 it was 1.3 µM (inactive); in the assay with MDA-MB-435, 0.973 µM (active); in the assay with OVCAR-4, 6.15 µM (inactive); in the assay on NCI-H522 it was 24.2 µM (inactive); in the assay on UACC-257, 10.5 µM (inactive). For the same compound, the GI50 in the assay with HL-60 was 3.16 µM (inactive); in the assay with K562 it was 2.48 µM (inactive); in the assay on RPMI-8226 it was 2.48 µM (inactive); with MDA-MB-231, 16.4 µM (inactive); in the assay on CCRF-CEM, 3.39 µM (inactive); in the assay with 786-0 it was 5.13 µM (inactive). The GI50 with EKVX was 13 µM (inactive); with PC-3, 9.46 µM (inactive); in the assay on BT-549 it was 9.75 µM (inactive); in the assay with SN12C it was 10.6 µM (inactive); in the assay on NCI-H460, 38.2 µM (inactive); in the assay on U-251, 2.26 µM (inactive). Also, the GI50 in the assay on SK-OV-3 was 16.9 µM (inactive).
`O=C1CCCCC/C1=C\c1ccc([N+](=O)[O-])cc1`: the GI50 was 36.5 µM (inactive) with A549; 21.9 µM (inactive) in the assay on OVCAR-3; 38.1 µM (inactive) with MDA-MB-435; 20.9 µM (inactive) in the assay with UACC-257; 28.9 µM (inactive) in the assay with HL-60; 50 µM (inactive) in the assay on K562. The GI50 with RPMI-8226 was 33.3 µM (inactive); with MDA-MB-231, 13 µM (inactive); in the assay with CCRF-CEM, 26.7 µM (inactive); in the assay with 786-0, 19.7 µM (inactive); in the assay on EKVX, 35.3 µM (inactive); with PC-3, 38.6 µM (inactive). Further, the GI50 in the assay on BT-549 was 23 µM (inactive); in the assay with SN12C it was 23.7 µM (inactive); in the assay on NCI-H460, 20.1 µM (inactive); with U-251, 31.3 µM (inactive); in the assay with SK-OV-3, 36.1 µM (inactive).

The values are drawn from ChEMBL document CHEMBL1201862, “PubChem BioAssay data set” (2004).
